Data reported in ChEMBL document CHEMBL1130087, “Phosphodiester amidates of unsaturated nucleoside analogues: synthesis and anti-HIV activity” (J Med Chem, 1997).

What was measured:
[1] = tested on: liver esterase; test: Half-life catalyzed by Pig Liver Esterase; type: ADME, Sus scrofa
[2] = biological target: Human immunodeficiency virus 1; test: tested for its anti-HIV activity.
[3] = tested on: ATH-8 cell line; test: tested for cytotoxicity of HIV-1 replication in ATH-8 cells; type: functional, Homo sapiens

SMILES | half-life [1] | EC50 [2] | Cytotoxicity [3]
COC(=O)C(C)NP(=O)(OCC=C=Cn1cnc2c(O)ncnc21)Oc1ccccc1 (configuration not stated) | 8.5 h | – | –
COC(=O)C(C)NP(=O)(OCC=C=Cn1cnc2c(N)ncnc21)Oc1ccccc1 (configuration not stated) | 7.3 h | – | –
Nc1ncnc2c1ncn2C/C=C/CCOCP(=O)(O)O | – | 9 µM | –
COC(=O)C(C)NP(=O)(OC/C=C\Cn1cnc2c(O)ncnc21)Oc1ccccc1 (configuration not stated) | 58.3 h | – | –
COC(=O)C(C)NP(=O)(OC/C=C/Cn1cnc2c(N)ncnc21)Oc1ccccc1 (configuration not stated) | 57.1 h | – | >10 µM
COC(=O)C(C)NP(=O)(OC/C=C\Cn1cnc2c(N)ncnc21)Oc1ccccc1 (configuration not stated) | 43.5 h | – | –
